Measured values from ChEMBL document CHEMBL1145805, “Utilization of a beta-aminophosphotyrosyl mimetic in the design and synthesis of macrocyclic Grb2 SH2 domain-binding peptides” (J Med Chem, 2003).
The source made the active and inactive calls. The calls are words filed in the database; no cut-off is given here.

Experiments:
[1] = target: T1, Growth factor receptor-bound protein 2 (Homo sapiens, UniProt P62993); assay: Inhibition of Growth factor receptor bound protein 2 SH2 domain in extracellular binding assay
Target sequence in this assay (P62993 whole entry, the tested form may be a part): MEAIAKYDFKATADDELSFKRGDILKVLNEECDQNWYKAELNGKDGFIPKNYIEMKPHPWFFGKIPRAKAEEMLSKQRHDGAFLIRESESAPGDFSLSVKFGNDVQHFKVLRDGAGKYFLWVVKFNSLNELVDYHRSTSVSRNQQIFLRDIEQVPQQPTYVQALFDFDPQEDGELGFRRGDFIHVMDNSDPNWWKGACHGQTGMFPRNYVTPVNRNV

MDA-MB-453 = assay: Inhibition of MDA-MB-453 breast cancer cell proliferation (No inhibition); assay type: functional, cell-based; details: Homo sapiens
[2] = target: T1, Growth factor receptor-bound protein 2; assay: Inhibition of growth factor receptor-bound protein 2 SH2 domain binding to erbB-2 in cell-based assay (Not significant)
Target sequence in this assay (P62993 whole entry, looked up, the tested form may be a part): as the sequence (P62993 whole entry, the tested form may be a part) above

Row | SMILES | IC50 [1] [µM] | NI (MDA-MB-453) | NS [2]
1 | NC(=O)C[C@@H]1NC(=O)C2(CCCCC2)NC(=O)C[C@@H](c2ccc(CP(=O)(O)O)cc2)NC(=O)CCNC1=O | > 600 |  | 
2 | NC(=O)C[C@@H]1NC(=O)C2(CCCCC2)NC(=O)C[C@@H](c2ccc(CP(=O)(O)O)cc2)NC(=O)CNC1=O | > 600 |  | 
3 | NC(=O)C[C@@H]1NC(=O)C2(CCCCC2)NC(=O)C[C@@H](c2ccc(CP(=O)(O)O)cc2)NC(=O)CCCNC1=O | 47.9 |  | 
4 | NC(=O)C[C@H](NC(=O)C1(NC(=O)CCc2ccc(CP(=O)(O)O)cc2)CCCCC1)C(N)=O | 52.5 |  | 
5 | NC(=O)C[C@@H]1NC(=O)C2(CCCCC2)NC(=O)C[C@@H](c2ccc(CP(=O)(O)O)cc2)NC(=O)C[C@@H](Cc2cccc3ccccc23)CNC1=O | 7.9 | inactive | inactive
6 | NC(=O)C[C@@H]1NC(=O)C2(CCCCC2)NC(=O)C[C@@H](c2ccc(CP(=O)(O)O)cc2)/C=C/C[C@@H](Cc2cccc3ccccc23)CNC1=O | 0.026 | inactive | inactive
